According to PMC6585789 (American Journal of Hematology, 2017):
Blank lines part the entries; values can stand above or below the compound they belong to.

What was measured:
[1] = Plasma pharmacokinetics of quizartinib and AC886; format: in vivo, human
[2] = potentially due to induction of metabolizing enzymes; cited from earlier work
[3] = system: subjects with newly diagnosed AML harboring FLT3 mutations; conditions: in combination with standard first line chemotherapy; cited from earlier work
[4] = system: subjects with FLT3‐ITD–mutated AML following HCT; conditions: sorafenib maintenance following HCT; cited from earlier work

Plasma trough concentrations reached steady state by ([1]; daily administration): ~15 days
Mean trough concentration ([1]; from cycle 2 onward, continuous administration): > 300 ng/mL
Tmax ([1]; human, plasma, oral): 2 to 3.21 h
Increase in geometric mean AUC0–24 during multiple dosing ([1]; quizartinib, both doses): approximately 5 fold
SMILES: CC(C)(C)c1cc(NC(=O)Nc2ccc(-c3cn4c(n3)sc3cc(OCCN5CCOCC5)ccc34)cc2)no1.Cl.Cl [quizartinib, N‐(5‐tert‐butyl‐isoxazol‐3‐yl)‐N′‐{4‐[7‐(2‐morpholin‐4‐yl‐ethoxy)imidazo[2,1‐b][1, 3]benzothiazol‐2‐yl]phenyl}urea dihydrochloride]

SMILES: CO[C@@H]1[C@H](N(C)C(=O)c2ccccc2)C[C@H]2O[C@]1(C)n1c3ccccc3c3c4c(c5c6ccccc6n2c5c31)C(=O)NC4 [midostaurin]
Plasma concentrations during continuous dosing [2]: decrease during continuous dosing
OS benefit [3]: significant OS benefit

SMILES: CNC(=O)c1cc(Oc2ccc(NC(=O)Nc3ccc(Cl)c(C(F)(F)F)c3)cc2)ccn1 [sorafenib]
1‐year OS [4]: 95%
1‐year progression‐free survival (PFS) [4]: 85%
